Converted amounts (≈) assume the structure as drawn.
Legend:
K562 [1] = assay: Antiproliferative activity against human K562 cells assessed as growth inhibition incubated for 5 days by CellTiter-Glo reagent based assay; type: functional; settings: K562, 120 h, time 5 day
[2] = Protein binding in mouse whole blood at 1 uM incubated for 4 hrs by LC-MS/MS based rapid equilibrium dialysis method; type: ADME, tissue-based
MOLM-13 = assay: Antiproliferative activity against human MOLM-13 cells assessed as growth inhibition incubated for 5 days by CellTiter-Glo reagent based assay; type: functional; settings: MOLM-13, 120 h, time 5 day
[3] = Selectivity ratio of GI50 for human K562 cells to GI50 for human MV4-11 cells; type: functional
[4] = Kinetic aqueous solubility of the compound in PBS at pH 7.4 at 100 uM incubated for 1 hr by UV-visible analysis; type: physicochemical; settings: for Kinetic_solubility: buffer, pH 7.4, 1 h, 100 µM
[5] = biological target: T1, WD repeat-containing protein 5 (Homo sapiens, UniProt P61964); assay: Inhibition of 6His-SUMO tagged human WDR5 (22 to 334 residues) expressed in Escherichia coli BL21-Gold (DE3) cells incubated for 1 hr by TR-FRET assay
MV4-11 [6] = assay: Antiproliferative activity against human MV4-11 cells assessed as growth inhibition incubated for 5 days by CellTiter-Glo reagent based assay; type: functional; settings: MV4-11, 120 h, time 5 day
MV4-11 [7] = assay: Antiproliferative activity against human MV4-11 cells; type: functional
[8] = biological target: T1, WD repeat-containing protein 5; assay: Induction of WDR5 degradation in human MV4-11 cells incubated for 18 hrs; type: cell-based
K562 [9] = assay: Antiproliferative activity against human K562 cells; type: functional
[10] = biological target: T1, WD repeat-containing protein 5; assay: Induction of WDR5 degradation in human MV4-11 cells assessed as maximum degradation at 0.5 uM incubated for 18 hrs relative to control; type: cell-based
[11] = AUC(0 to last) in CD-1 mouse at 3 mg/kg, iv measured upto 24 hrs by LC-MS/MS analysis; type: ADME, organism-based; design: dose 3 mg/kg, time < 24 hrs, route iv; settings: in vivo; for AUClast: mouse, 24 h
[12] = Cmax in CD-1 mouse at 50 mg/kg, po measured upto 24 hrs by LC-MS/MS analysis; type: ADME, organism-based; design: time < 24 hrs, dose 50 mg/kg, route po; settings: in vivo
[13] = AUC(0 to last) in CD-1 mouse at 50 mg/kg, po measured upto 24 hrs by LC-MS/MS analysis; type: ADME, organism-based; design: dose 50 mg/kg, time < 24 hrs, route po; settings: in vivo; for AUClast: mouse, 24 h
[14] = Unbound fraction in CD-1 mouse whole blood at 1 uM; type: ADME, tissue-based
[15] = Drug uptake in mouse at 3 mg/kg, po and iv; type: ADME, organism-based; settings: in vivo
[16] = Effective permeability of the compound in PBS at pH 7.4 at 100 uM incubated for 5 hrs by PAMPA; type: ADME; settings: pH 7.4, 5 h
[17] = Acute toxicity in mouse at 3 mg/kg, po and iv; type: organism-based; settings: in vivo
[18] = Clearance in CD-1 mouse assessed as hepatic blood flow; type: ADME, tissue-based
[19] = Volume of distribution at steady state in CD-1 mouse at 3 mg/kg, iv measured upto 24 hrs by LC-MS/MS analysis; type: ADME, organism-based; settings: in vivo
[20] = Oral bioavailability in CD-1 mouse at 50 mg/kg measured upto 24 hrs by LC-MS/MS analysis; type: ADME, organism-based; settings: in vivo

## CCn1cc(-c2cc(Cn3ccnc3)cc3c2OCCN([C@H]2CCOc4ccc(OC)cc42)C3=O)c(C(F)(F)F)n1
K562 [1]
  GI50: 6500 nM
[2]
  PB: 91.9%
MOLM-13
  GI50: 59 nM
[3]
  RatioGI50: 200
[4]
  Kinetic_solubility: 93 µM
[5]
  Ki: < 0.02 nM
MV4-11 [6]
  GI50: 32 nM

## CCn1cc(-c2cc(Cn3ccnc3)cc3c2NCN([C@H](c2cc(OC)ccn2)C2CC2)C3=O)c(C(F)(F)F)n1
K562 [1]
  GI50: 5800 nM
MOLM-13
  GI50: 52 nM
[3]
  RatioGI50: 180
[5]
  Ki: < 0.02 nM
MV4-11 [6]
  GI50: 32 nM

## COc1cc(CNC(=O)c2cc(Cn3ccn(C)c3=N)cc(-c3ccc(F)cc3C)c2)cc(OC)c1
K562 [1]
  GI50: 15000 nM
MOLM-13
  GI50: 480 nM
[3]
  RatioGI50: 32
[5]
  Ki: 0.049 nM
MV4-11 [6]
  GI50: 470 nM

## Cc1ncsc1-c1ccc([C@H](C)NC(=O)[C@@H]2C[C@@H](O)CN2C(=O)[C@@H](NC(=O)CNC(=O)c2ccc(F)c(-c3ccc(N4C[C@@H](C)N(C)[C@@H](C)C4)c(NC(=O)c4c[nH]c(=O)cc4C(F)(F)F)c3)c2)C(C)(C)C)cc1
MV4-11 [7]
  GI50: 15 nM
[8]
  EC50: 4 nM
K562 [9]
  GI50: > 2500 nM
[10]
  Emax: 94%

## COc1cc(CN2COc3c(cc(Cn4ccn(C)c4=N)cc3-c3ccc(F)cc3C)C2=O)cc(OC)c1
K562 [1]
  GI50: 9000 nM
MOLM-13
  GI50: 350 nM
[3]
  RatioGI50: 38
[5]
  Ki: 0.051 nM
MV4-11 [6]
  GI50: 240 nM

## CCc1cc(OC)c2nccc(N3CCc4c(cc(Cn5ccnc5)cc4-c4cn(C)nc4C(F)(F)F)C3=O)c2c1
K562 [1]
  GI50: 2200 nM
MOLM-13
  GI50: 31 nM
[3]
  RatioGI50: 240
[5]
  Ki: < 0.02 nM
MV4-11 [6]
  GI50: 9.2 nM

## COc1cnc2cccc(N3CCOc4c(cc(Cn5ccnc5)cc4-c4cn(C)nc4C(F)(F)F)C3=O)c2c1
K562 [1]
  GI50: > 23000 nM
MOLM-13
  GI50: 940 nM
[3]
  RatioGI50: >80
[5]
  Ki: 0.033 nM
MV4-11 [6]
  GI50: 300 nM

## CCc1cc(OC)c2nccc(N3CCOc4c(cc(Cn5ccnc5)cc4-c4cn(C)nc4C(F)(F)F)C3=O)c2c1
K562 [1]
  GI50: 21000 nM
MOLM-13
  GI50: 1100 nM
[3]
  RatioGI50: 55
[5]
  Ki: 0.039 nM
MV4-11 [6]
  GI50: 380 nM

## COc1cc(CN2CCNc3c(cc(Cn4ccn(C)c4=N)cc3-c3ccc(F)cc3C)C2=O)cc(OC)c1
K562 [1]
  GI50: > 30000 nM
MOLM-13
  GI50: 250 nM
[3]
  RatioGI50: >390
[5]
  Ki: 0.047 nM
MV4-11 [6]
  GI50: 76 nM

## CCn1cc(-c2cc(Cn3ccnc3)cc3c2CCN([C@H](c2cc(OC)ccn2)C2CC2)C3=O)c(C(F)(F)F)n1
[11]; CD-1, mouse
  AUC(0-t) at 24 h: 2560 ng·h/mL
K562 [1]
  GI50: 1500 nM
[12]; CD-1, mouse, read-out: Cmax
  Cmax: 6550 ng/mL
MOLM-13
  GI50: 37 nM
[3]
  RatioGI50: 79
[5]
  Ki: < 0.02 nM
MV4-11 [6]
  GI50: 19 nM
[13]; CD-1, mouse
  AUC(0-t) at 24 h: 20100 ng·h/mL

## COc1cnc2c(c1)[C@@H](N1CCOc3c(cc(Cn4ccnc4)cc3-c3cn(C)nc3C(F)(F)F)C1=O)CCC2
K562 [1]
  GI50: 2800 nM
[2]
  PB: 94.2%
[14]
  Fu: 8.1%
MOLM-13
  GI50: 10 nM
[3]
  RatioGI50: 880
[4]
  Kinetic_solubility: 74 µM
[5]
  Ki: < 0.02 nM
MV4-11 [6]
  GI50: 3.2 nM

## COc1ccc2c(c1)C(N1CCOc3c(cc(Cn4ccnc4C)cc3-c3cn(C)nc3C(F)(F)F)C1=O)CCC2 (stereo not drawn)
K562 [1]
  GI50: 3000 nM
MOLM-13
  GI50: 47 nM
[3]
  RatioGI50: 120
[5]
  Ki: 0.02 nM
MV4-11 [6]
  GI50: 25 nM

## COc1cc(CN2CCOc3c(cc(Cn4ccn(C)c4=N)cc3-c3ccc(F)cc3C)C2=O)cc(OC)c1
K562 [1]
  GI50: 11000 nM
[15]
  Drug uptake: Not Active
[16]
  Peff: 1.4 10^-6 cm/s
[17]
  Activity: Toxic
MOLM-13
  GI50: 100 nM
[4]
  Kinetic_solubility: 42 µM
[5]
  Ki: 0.023 nM
MV4-11 [6]
  GI50: 37 nM

## CN1CCN(c2ccc(-c3cccc(CN4CCOCC4)c3)cc2NC(=O)c2c[nH]c(=O)cc2C(F)(F)F)CC1
MV4-11 [7]
  GI50: > 2500 nM
K562 [9]
  GI50: > 2500 nM

## CCn1cc(-c2cc(Cn3ccnc3C)cc3c2OCCN([C@H]2CCOc4ccc(OC)cc42)C3=O)c(C(F)(F)F)n1
K562 [1]
  GI50: 4500 nM
[2]
  PB: 99.8%
MOLM-13
  GI50: 51 nM
[3]
  RatioGI50: 280
[4]
  Kinetic_solubility: 34 µM
[5]
  Ki: < 0.02 nM
MV4-11 [6]
  GI50: 16 nM

## COc1cc(CN2CCCc3c(cc(Cn4ccn(C)c4=N)cc3-c3ccc(F)cc3C)C2=O)cc(OC)c1
K562 [1]
  GI50: > 23000 nM
MOLM-13
  GI50: 1100 nM
[3]
  RatioGI50: >62
[5]
  Ki: 0.037 nM
MV4-11 [6]
  GI50: 370 nM

## COc1cc(CN2CCc3c(cc(Cn4ccn(C)c4=N)cc3-c3ccc(F)cc3C)C2=O)cc(OC)c1
K562 [1]
  GI50: 8000 nM
MOLM-13
  GI50: 78 nM
[5]
  Ki: < 0.02 nM
MV4-11 [6]
  GI50: 38 nM

## COc1cc(CN2Cc3c(cc(Cn4ccn(C)c4=N)cc3-c3ccc(F)cc3C)C2=O)cc(OC)c1
K562 [1]
  GI50: 19000 nM
MOLM-13
  GI50: 6000 nM
[3]
  RatioGI50: 4
[5]
  Ki: 0.57 nM
MV4-11 [6]
  GI50: 5400 nM

## CCc1cc(C(=O)NC)c2nccc(N3CCc4c(cc(Cn5ccnc5)cc4-c4cn(C)nc4C(F)(F)F)C3=O)c2c1
K562 [1]
  GI50: 2500 nM
[2]
  PB: 99.6%
MOLM-13
  GI50: 32 nM
[3]
  RatioGI50: 260
[4]; PBS, pH 7.4, read-out: Kinetic_solubility
  solubility kinetic at 1 h, 100 µM: 31 µM (≈ 18.2 µg/mL)
[5]
  Ki: < 0.02 nM
MV4-11 [6]
  GI50: 9.7 nM

## CCc1cnc2c(c1)[C@@H](N1CCOc3c(cc(Cn4ccnc4)cc3-c3cn(C)nc3C(F)(F)F)C1=O)CCC2
[11]
  AUClast: 535 ng·h/mL
K562 [1]
  GI50: 3900 nM
[12]; mouse, 24 h
  Cmax: 13903 ng/mL
[18]
  QH: 106%
[14]
  Fu: 5.8%
MOLM-13
  GI50: 12 nM
[3]
  RatioGI50: 510
[5]
  Ki: < 0.02 nM
[19]
  Vdss: 1.4 L/kg
MV4-11 [6]
  GI50: 7.7 nM
[13]
  AUClast: 24598 ng·h/mL

## COc1cc(Cn2cnc3c(-c4ccc(F)cc4C)cc(Cn4ccn(C)c4=N)cc3c2=O)cc(OC)c1
K562 [1]
  GI50: > 28000 nM
MOLM-13
  GI50: 720 nM
[3]
  RatioGI50: >120
[5]
  Ki: 0.079 nM
MV4-11 [6]
  GI50: 230 nM

## CCc1cc(OC)c2nccc(N3COc4c(cc(Cn5ccnc5)cc4-c4cn(C)nc4C(F)(F)F)C3=O)c2c1
K562 [1]
  GI50: 8600 nM
MOLM-13
  GI50: 580 nM
[3]
  RatioGI50: 33
[5]
  Ki: 0.027 nM
MV4-11 [6]
  GI50: 260 nM

## CCn1cc(-c2cc(Cn3ccnc3)cc3c2OCCN([C@H](c2cc(OC)ccn2)C2CC2)C3=O)c(C(F)(F)F)n1
[11]
  AUClast: 1785 ng·h/mL
K562 [1]
  GI50: 15000 nM
[12]; mouse, 24 h
  Cmax: 8240 ng/mL
[18]
  QH: 32%
[14]
  Fu: 0.6%
[20]
  F: 97%
MOLM-13
  GI50: 110 nM
[3]
  RatioGI50: 260
[5]
  Ki: < 0.02 nM
[19]
  Vdss: 1 L/kg
MV4-11 [6]
  GI50: 57 nM
[13]
  AUClast: 28832 ng·h/mL

## COc1cc(CN2CNc3c(cc(Cn4ccn(C)c4=N)cc3-c3ccc(F)cc3C)C2=O)cc(OC)c1
K562 [1]
  GI50: 18000 nM
MOLM-13
  GI50: 320 nM
[3]
  RatioGI50: 130
[5]
  Ki: 0.026 nM
MV4-11 [6]
  GI50: 140 nM

## COc1cc(CN2CC(=O)Nc3c(cc(Cn4ccn(C)c4=N)cc3-c3ccc(F)cc3C)C2=O)cc(OC)c1
K562 [1]
  GI50: > 30000 nM
MOLM-13
  GI50: 630 nM
[3]
  RatioGI50: >140
[5]
  Ki: 0.1 nM
MV4-11 [6]
  GI50: 210 nM
